Structures can show the parent of a compound that is named as a salt.
What follows are molecules tested against T1, TXA2 receptors (Homo sapiens, UniProt P21731) (assay: human platelet binding assay ([^125 I]PTA-OH receptor ligand)). Conditions: 50% inhibition of specific [^125 I]PTA-OH binding; human platelets.
T1 construct: from tissue; host or cells: human platelets
T1 sequence (P21731 1-343): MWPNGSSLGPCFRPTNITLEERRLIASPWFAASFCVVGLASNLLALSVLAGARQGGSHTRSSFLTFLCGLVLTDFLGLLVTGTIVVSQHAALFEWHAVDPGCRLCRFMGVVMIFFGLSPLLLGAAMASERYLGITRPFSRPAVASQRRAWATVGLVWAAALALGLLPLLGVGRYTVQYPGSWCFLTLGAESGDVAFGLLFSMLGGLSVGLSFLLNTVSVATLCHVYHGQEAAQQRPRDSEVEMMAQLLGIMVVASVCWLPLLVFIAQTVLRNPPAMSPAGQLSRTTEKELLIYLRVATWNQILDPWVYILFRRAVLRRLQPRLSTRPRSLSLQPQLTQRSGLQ
Protocol: As indicated above, compounds of the formula (I) have biological activity that is indicative of an ability to antagonise TXA2 receptors. […] The platelet binding assay used was essentially the method described by Mais et al, J. Pharm. Exp. Ther., 1985, 235(3), 729-734 where [^125 I]PTA-OH was used as the receptor ligand. The IC50 values represent the concentration which produces a 50% inhibition of specific [^125 I]PTA-OH binding. The compounds of Examples 1 to 6 were tested in the human platelet binding assays as described above and the results obtained are shown in the Table below: […]
Work on `O=C(O)c1ccccc1CN1CCc2ccc(S(=O)(=O)Nc3cccc(Cl)c3)cc2C1` [Example 1, 2-[[7-(3-chlorophenylsulphamoyl)-1,2,3,4-tetrahydroisoquinolin-2-yl]methyl]benzoic acid] yielded an IC50 of 2600 nM. `O=C(O)c1cccc(CN2CCc3ccc(S(=O)(=O)Nc4cccc(Cl)c4)cc3C2)c1` [Example 2, 3-[[7-(3-Chlorophenylsulphamoyl)-1,2,3,4-tetrahydroisoquinolin-2-yl]methyl]benzoic acid] showed an IC50 of 500 nM. For `O=C(O)c1ccc(CN2CCc3ccc(S(=O)(=O)Nc4cccc(Cl)c4)cc3C2)cc1` [Example 3, 4-[[7-(3-Chlorophenylsulphamoyl)-1,2,3,4-tetrahydroisoquinolin-2-yl]methyl]benzoic acid], the IC50 was 4000 nM. Work on `COC(=O)c1ccc(CN2CCc3ccc(S(=O)(=O)Nc4cccc(Cl)c4)cc3C2)o1` [Example 4, methyl-5-[[7-(3-chlorophenylsulphamoyl)-1,2,3,4-tetrahydroisoquinolin-2-yl]methyl]-2-furoate] yielded an IC50 of 5000 nM. `O=C(O)c1ccc(CN2CCc3ccc(S(=O)(=O)Nc4cccc(Cl)c4)cc3C2)o1` [Example 5, 5-[[7-(3-chlorophenylsulphamoyl)-1,2,3,4-tetrahydroisoquinolin-2-yl]methyl]-2-furoic acid] gave an IC50 of 760 nM. With `O=C(O)c1ccnc(CN2CCc3ccc(S(=O)(=O)Nc4cccc(Cl)c4)cc3C2)c1` [Example 6, 2-[[7-(3-chlorophenylsulphamoyl)-1,2,3,4-tetrahydroisoquinolin-2-yl]methyl]isonicotinic acid hydrochloride] the IC50 was 2900 nM.
